Structures can show the parent of a compound that is named as a salt.
system: STING activation (IFNβ release) in iBMDMs; test: IFNβ release ELISA after STING ligand (or LPS) stimulation, iBMDMs; format: cell-based, mouse; conditions: iBMDMs; 3′3′-cGAMP 10 μg/ml, 16 hours; compound 10 μM
Description: Commercially available enzyme-linked immunosorbent assay (ELISA) kits were used to measure the concentrations of mouse IFNβ (Thermo Fisher Scientific) or human IFNβ (Thermo Fisher Scientific) in culture medium according to the manufacturer's instructions. […]

Compound | fold increase in IFN-β release | 3′3′-cGAMP-induced IFNβ release
6H05 | 1.18 fold | 
O=C(O)C(Cc1ccccc1[N+](=O)[O-])=NNc1nc(-c2ccc(Cl)c(Cl)c2)cs1 (mixture of isomers) [4EGI-1] | 4.14 fold | 
C[C@H]1COC2(CCN(c3nc(=O)c4cc(C(F)(F)F)cc([N+](=O)[O-])c4s3)CC2)O1 (racemic) [BTZ043 Racemate] | 0.69 fold | 
N[C@@H]1C[C@H]1c1ccccc1 (racemic) [Tranylcypromine (2-PCPA) HCl, Tranylcypromine] | 1.17 fold | 
COc1cc2c(cc1O)CC[C@@H]1[C@@H]2CC[C@]2(C)[C@@H](O)CC[C@@H]12 [2-Methoxyestradiol (2-MeOE2), 2-Methoxyestradiol] | 2.62 fold | 
O=[N+]([O-])C=Cc1ccc2c(c1)OCO2 [3,4-Methylenedioxy-β-nitrostyrene] | 0.26 fold | 
O=C(O)c1ccc(N2C(=O)/C(=C\c3ccc(-c4ccc([N+](=O)[O-])cc4)o3)C=C2c2ccccc2)cc1 [4E1 RCat] | 2.36 fold | 
CC(C)N(CCC(c1ccccc1)c1cc(CO)ccc1O)C(C)C (stereo not drawn) [5-hydroxymethyl Tolterodine] | 1.10 fold | 
C=CCNC1=C2C[C@@H](C)C[C@H](OC)[C@H](O)[C@@H](C)/C=C(\C)[C@H](OC(N)=O)[C@@H](OC)/C=C\C=C(/C)C(=O)NC(=CC1=O)C2=O [17-AAG (Tanespimycin), Tanespimycin] | 1.53 fold | 
CN1CCc2cc3c(cc2[C@H]1[C@@H]1OC(=O)c2c1ccc1c2OCO1)OCO3 [(+)-Bicuculline] | 1.26 fold | 
Cl.NCc1c[nH]c(=S)n1[C@@H]1CCc2c(F)cc(F)cc2C1 [(R)-Nepicastat HCl] | 2.13 fold | 
C[C@H](Oc1cc(-c2cnn(C3CCNCC3)c2)cnc1N)c1c(Cl)ccc(F)c1Cl [(S)-crizotinib] | 3.05 fold | 
N#Cc1c(O)c2c(-c3ccc(-c4ccccc4O)cc3)csc2[nH]c1=O [A-769662] | 2.13 fold | 
CC1(C)CCC(CN2CCN(c3ccc(C(=O)NS(=O)(=O)c4ccc(NCC5CCOCC5)c([N+](=O)[O-])c4)c(Oc4cnc5[nH]ccc5c4)c3)CC2)=C(c2ccc(Cl)cc2)C1 [ABT-199 (GDC-0199)] | 1.78 fold | 
CC1(C)CCC(c2ccc(Cl)cc2)=C(CN2CCN(c3ccc(C(=O)NS(=O)(=O)c4ccc(N[C@H](CCN5CCOCC5)CSc5ccccc5)c(S(=O)(=O)C(F)(F)F)c4)cc3)CC2)C1 [ABT-263 (Navitoclax), Navitoclax] | 1.27 fold | 
CCN(CC)C(=O)c1ccc(C2=CC3(CCNCC3)Oc3cccc(O)c32)cc1 [ADL5859 HCl] | 0.95 fold | 
O=C(c1ccc(F)cc1)N1CCC[C@H](c2nc(-c3ccc(F)cc3)no2)C1 [ADX-47273] | 1.72 fold | 
CN(C)Cc1ccc(-c2nc3cccc4c3n2CCNC4=O)cc1 [AG-14361] | 2.41 fold | 
Cc1ccccc1C(C(=O)NC1CCCCC1)N(C(=O)Cn1ccnc1C)c1cccc(F)c1 (stereo not drawn) [AGI-5198] | 1.13 fold | 
O=C(Nc1cccc(C(F)(F)F)c1)Nc1cc(S(=O)(=O)NC2CC2)ccc1-c1ccsc1 [AGI-6780] | 2.14 fold | 
CN1CCCCC1Cn1cc(C(=O)c2cc([N+](=O)[O-])ccc2I)c2ccccc21 (stereo not drawn) [AM1241] | 8.07 fold | promoted
CC(=O)Nc1nc2c(Oc3cc(-c4ccc(C(F)(F)F)cc4)ncn3)cccc2s1 [AMG-517] | 1.18 fold | 
C#CC[C@H](c1nc2cc(Cl)ccc2c(=O)n1Nc1ccccc1)N(CCCN)C(=O)c1cccc(Cl)c1F [ARQ 621] | 1.87 fold | 

From patent US11179412B2, “Methods of treating conditions involving elevated inflammatory response” (University of Pittsburgh—Of the Commonwealth System of …, priority 2017, dated 2021)
